{"source": "patent US9533064B1", "about": "“Device and method for decontamination, disinfection, and sanitation” (Nanomist Systems, LLC, priority 2013, dated 2017)", "test_system": "G. Stearothermophilus", "key": {"[1]": {"settings": "36-m^3 room and 110-m^3 carpeted rooms, initial 40-55% RH, 20-25 C, biological indicators in Tyvek pouches"}}, "method": "The application of condensed vapor cloud generated biocide dispersion was tested in a 36-m^3 single room and in 110-m^3 two-room model (family room+bathroom). The single room was tiled floor and two-room model had wall-to-wall carpet. With initial room humidity in the range 40-55% RH and 20-25 C, decontamination tests were carried out using biological indicators (BI). Biological indicator test disks were prepared by Mesa Labs. The Biological indicators are inoculated with 4-log, 5-log and 6-log populations of G. Stearothermophilus. The BI's are in Tyvek pouches. […] The condensed vapor generator was calibrated with scaling of room size, mass concentration, carpet/tilled floor, and initial RH and temperature."}
{"smiles": "OO", "note": "[HP, hydrogen peroxide]", "values": [{"measurement": "HP concentration above which 5-log kills were observed", "setting": "[1]", "result": "above 0.7 g/m^3"}, {"measurement": "HP concentration above which 6-log kill was observed", "setting": "[1]", "result": "above 1.8 g/m^3"}, {"measurement": "kill time", "setting": "HP mass injection rate of −50 g/min", "result": "10 to 15", "unit": "min"}]}
